# PMC9666459, “Crystal structure of semi-synthetic obelin-v after calcium induced bioluminescence implies coelenteramine as the main reaction product” (Scientific Reports, 2022)
# Legend:
# [1] = target: T1, obelin (apo-obelin; obelin-v when charged with CTZ-v) (Obelia longissima, UniProt Q27709); assay: charging of apo-obelin, Ca2+ discharge, then fluorescence and structure of discharged protein; format: biochemical; conditions: O2, Ca2+; charging overnight with twofold molar excess in 5 mM EDTA, 10 mM DTT, 20 mM Tris-HCl pH 7.2, 4 °C
# T1 construct: Ca2+-discharged form; two molecules per asymmetric unit
# T1 sequence (Q27709 1-195): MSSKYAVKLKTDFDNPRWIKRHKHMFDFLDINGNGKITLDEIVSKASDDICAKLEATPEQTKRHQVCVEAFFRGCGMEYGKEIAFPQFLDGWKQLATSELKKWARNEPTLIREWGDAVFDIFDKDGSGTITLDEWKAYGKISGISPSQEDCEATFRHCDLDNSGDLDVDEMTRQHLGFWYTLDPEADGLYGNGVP
# [2] = target: T1, obelin (apo-obelin; obelin-v when charged with CTZ-v); assay: charging of apo-obelin, Ca2+ discharge, then fluorescence of discharged protein; format: biochemical; conditions: O2, Ca2+; charging overnight with twofold molar excess in 5 mM EDTA, 10 mM DTT, 20 mM Tris-HCl pH 7.2, 4 °C
Structure (SMILES),"charging of apo-obelin, Ca2+ discharge, then fluorescence and structure of disch [1]","charging of apo-obelin, Ca2+ discharge, then fluorescence of discharged protein [2]"
O=c1c(Cc2ccc(O)cc2)nc2c(Cc3ccccc3)[nH]c3c4ccc(O)cc4ccc3n1-2 [CTZ-v],apo-obelin was incubated overnight with a twofold molar excess of CTZ or CTZ-v,
Oc1ccc(Cc2nc3c(Cc4ccccc4)nc(-c4ccc(O)cc4)cn3c2O)cc1 [CTZ],,apo-obelin was incubated overnight with a twofold molar excess of CTZ or CTZ-v
